For 34 compounds, IC50 results are on record in patent US11505548B2, “Heterocyclic compounds and their use for treatment of helminthic infections and diseases” (Celgene Corporation, priority 2019, dated 2022).

The subject of the test is microfilariae of Dirofilaria immitis. Nature of the test: Dirofilaria immitis, Microfilaria (DiMF) Assay. Type of test: cell-based. The conditions noted are these: read-out: D. immitis activity level (IC50 or MED). The procedure: Heartworm Screen Dirofilaria immitis (D. immitis)
Dirofilaria immitis, Microfilaria (DiMF) Assay.
Compounds were dissolved and serially diluted in DMSO. Aliquots were spotted to the empty wells of assay plates. Media and microfilariae of Dirofilaria immitis were added to each well to dilute the test compounds to the desired concentrations. Assay plates were incubated for approximately 72 hours, and the larvae in each well were observed microscopically for drug effect. Microfilariae in each well were assessed subjectively for survival or paralysis, and results were reported as Minimum Effective Dose (MED).
Active and selective (DiL4 vs. DiMF potency) example compounds were subsequently evaluated in heartworm positive dog studies to correlate the in vitro selectivity profile with in vivo effects on circulating microfilariae.

Each structure is given as a SMILES string. Bounds are passed on as bounds.

With `CC(=O)N(C)c1cccnc1Nc1nc(-c2cc(C(F)(F)F)c(OC(C)C)cn2)ns1` [Compound 187, N-(2-(3-(5-isopropoxy-4-(trifluoro-methyl)pyridin-2-yl)-1,2,4-thiadiazol-5-ylamino)pyridin-3-yl)-N-methylacetamide], the half-maximal inhibitory concentration (IC50) fell in the range of 200 to 500 nM.
As for `CC(=O)N(C)c1cccnc1Nc1nc(-c2cc(C(C)C)c(C)cn2)ns1` [Compound 223, N-(2-(3-(4-isopropyl-5-methylpyridin-2-yl)-1,2,4-thiadiazol-5-ylamino)pyridin-3-yl)-N-methyl-acetamide], the IC50 fell in the range of 200 to 500 nM.
As to `Cc1cccnc1Nc1nc(-c2ccc(O[C@@H]3CCN(C4CC4)C[C@H]3F)cn2)ns1` [Compound 91, 3-(5-((3R,4R)-1-cyclopropyl-3-fluoro-piperidin-4-yloxy)pyridin-2-yl)-N-(3-methylpyridin-2-yl)-1,2,4-thiadiazol-5-amine], the IC50 is 500 to 5000 nM.
Consider `Cc1cccnc1Nc1nc(-c2ccc(OC3CCOCC3)cn2)ns1` [Compound 15, N-(3-methyl-pyridin-2-yl)-3-(5-(tetrahydro-2H-pyran-4-yloxy)pyridin-2-yl)-1,2,4-thiadiazol-5-amine], for which the half-inhibitory concentration (IC50) fell in the range of 500 to 5000 nM.
Then `Cc1cccnc1Nc1nc(-c2cc(C(F)(F)F)c(OC3CC3)cn2)ns1` [Compound 102, 3-(5-cyclo-propoxy-4-(trifluoromethyl)pyridin-2-yl)-N-(3-methyl-pyridin-2-yl)-1,2,4-thiadiazol-5-amine], with 200 to 500 nM; and `CC(=O)N(C)c1cccnc1Nc1nc(-c2cc3c(cn2)OC(C)(C)C3)ns1` [Compound 271, N-(2-(3-(2,2-dimethyl-2,3-dihydrofuro [2,3-c]pyridin-5-yl)-1,2,4-thiadiazol-5-ylamino)pyridin-3-yl)-N-methylacetamide], with 500 to 5000 nM; and `CC(=O)N(C)c1cccnc1Nc1nc(-c2ccc(NC34CC(C3)C4)cn2)ns1` [Compound 207, N-(2-(3-(5-(bicyclo [1.1.1]pentan-1-ylamino)pyridin-2-yl)-1,2,4-thiadiazol-5-ylamino)pyridin-3-yl)-N-methylacetamide], with 500 to 5000 nM.
Take `CC(C)Oc1ccc(-c2nsc(Nc3ncccc3C(F)(F)F)n2)nc1` [Compound 54, 3-(5-isopropoxy-pyridin-2-yl)-N-(3-(trifluoromethyl)pyridin-2-yl)-1,2,4-thiadiazol-5-amine]: the IC50 was below 200 nM.
Then `Cc1cccnc1Nc1nc(-c2cc(C#N)c(OC(C)C)cn2)ns1` [Compound 200, 5-isopropoxy-2-(5-(3-methylpyridin-2-ylamino)-1,2,4-thiadiazol-3-yl)isonicotino-nitrile], with 200 to 500 nM; and `CC(C)c1ccnc(-c2nsc(Nc3ncccc3N(C)C(=O)C3CC3)n2)c1` [Compound 217, N-(2-(3-(4-isopropylpyridin-2-yl)-1,2,4-thiadiazol-5-ylamino)pyridin-3-yl)-N-methylcyclo-propanecarbox-amide], with 500 to 5000 nM.
`c1ccc(-c2nsc(Nc3ccc(N4CCCCC4)cn3)n2)nc1` [Cmpd 6, N-(5-(piperidin-1-yl)pyridin-2-yl)-3-(pyridin-2-yl)-1,2,4-thiadiazol-5-amine]: the IC50 was 500 to 5000 nM.
With `CC(C)Oc1ccc(-c2nsc(Nc3ncccc3C(=O)N(C)C)n2)nc1` [Compound 188, 2-(3-(5-isoprop-oxypyridin-2-yl)-1,2,4-thiadiazol-5-ylamino)-N,N-dimethyl nicotinamide], the IC50 lay in the range of 500 to 5000 nM.
Then `CC(C)Oc1cnc(-c2nsc(Nc3ncccc3C(=O)N3CCCC3)n2)cc1C(F)(F)F` [Compound 251, (2-(3-(5-isopropoxy-4-(trifluoromethyl)pyridin-2-yl)-1,2,4-thiadiazol-5-ylamino)pyridin-3-yl) (pyrrolidin-1-yl)methanone], with 500 to 5000 nM.
The result for `Cc1cccnc1-c1nsc(Nc2ccc(N3CCCC3)cn2)n1` [Compound 51, 3-(3-methyl-pyridin-2-yl)-N-(5-(pyrrolidin-1-yl)pyridin-2-yl)-1,2,4-thiadiazol-5-amine] reads 500 to 5000 nM; that for `Cc1cccnc1Nc1nc(-c2ccc(OC(F)(F)F)cn2)ns1` [Compound 52, N-(3-methyl-pyridin-2-yl)-3-(5-(trifluoro-methoxy)pyridin-2-yl)-1,2,4-thiadiazol-5-amine], 500 to 5000 nM; that for `COc1ccc(-c2nnc(Nc3cc(OC(C)C)ccn3)[nH]2)nc1` [Compound 257, 4-isopropoxy-N-(5-(5-methoxy-pyridin-2-yl)-4H-1,2,4-triazol-3-yl)pyridin-2-amine], 500 to 5000 nM.
As to `CC(=O)N(C)c1cc(C(F)(F)F)cnc1Nc1nc(-c2cc3c(cn2)N(C(C)C)CC3)ns1` [Compound 273, N-(2-(3-(1-isopropyl-2,3-dihydro-1H-pyrrolo[2,3-c]pyridin-5-yl)-1,2,4-thiadiazol-5-ylamino)-5-(trifluoromethyl)pyridin-3-yl)-N-methylacetamide], the IC50 was below 200 nM.
`CC(C)Oc1cnc(-c2nsc(Nc3ncccc3C(C)C)n2)cc1C#N` [Compound 201, 5-isopropoxy-2-(5-(3-isopropyl-pyridin-2-ylamino)-1,2,4-thiadiazol-3-yl)isonicotino-nitrile]: the IC50 was below 200 nM.
On to `CC(C)Oc1ccc(-c2nsc(Nc3ncccc3C3CC3)n2)nc1` [Compound 76, N-(3-cyclopropyl-pyridin-2-yl)-3-(5-isopropoxy-pyridin-2-yl)-1,2,4-thiadiazol-5-amine], for which the IC50 was below 200 nM.
Turning to `CC(C)c1ccnc(-c2nsc(Nc3cc(C(F)(F)F)ccn3)n2)c1` [Compound 86, 3-(4-isopropyl-pyridin-2-yl)-N-(4-(trifluoromethyl)pyridin-2-yl)-1,2,4-thiadiazol-5-amine], the half-maximal inhibitory concentration (IC50) is below 200 nM.
The result for `CC(C)Oc1ccc(-c2nsc(Nc3ncccc3N(C)C(=O)C3CCCC3)n2)nc1` [Compound 172, N-(2-(3-(5-isopropoxy-pyridin-2-yl)-1,2,4-thiadiazol-5-ylamino)pyridin-3-yl)-N-methylcyclo-pentane-carboxamide] reads 200 to 500 nM.
Then `CC(C)Oc1cnc(-c2nsc(Nc3ncccc3C(=O)N(C)C)n2)cc1C(F)F` [Compound 260, 2-(3-(4-(difluoro-methyl)-5-isopropoxy-pyridin-2-yl)-1,2,4-thiadiazol-5-ylamino)-N,N-dimethyl-nicotinamide], with 200 to 500 nM; and `COc1cnc(Nc2nc(-c3cc(C(=O)N(C)C)c(OC(C)C)cn3)ns2)c(C(F)(F)F)c1` [Compound 264, 5-isopropoxy-2-(5-(5-methoxy-3-(trifluoro-methyl)pyridin-2-ylamino)-1,2,4-thiadiazol-3-yl)-N,N-dimethyliso-nicotinamide], with 200 to 500 nM; and `FC(F)(F)c1ccnc(Nc2nc(-c3cc(C4CC4)ccn3)ns2)c1` [Compound 85, 3-(4-cyclopropyl-pyridin-2-yl)-N-(4-(trifluoromethyl)pyridin-2-yl)-1,2,4-thiadiazol-5-amine], with below 200 nM.
With `CC(C)Oc1cnc(-c2nsc(Nc3ncccc3C(=O)N(C)C3CC3)n2)cc1C(F)(F)F` [Compound 263, N-cyclo-propyl-2-(3-(5-isopropoxy-4-(trifluoro-methyl)pyridin-2-yl)-1,2,4-thiadiazol-5-ylamino)-N-methyl-nicotinamide], the half-inhibitory concentration (IC50) was below 200 nM.
The result for `COc1cccnc1Nc1nc(-c2cc(C(F)(F)F)c(OC3CC3)cn2)ns1` [Compound 134, 3-(5-cyclo-propoxy-4-(trifluoromethyl)pyridin-2-yl)-N-(3-methoxy-pyridin-2-yl)-1,2,4-thiadiazol-5-amine] reads 500 to 5000 nM.
The result for `Cc1cccnc1Nc1nc(-c2cnc(OC(C)C)cn2)ns1` [Compound 124, 3-(5-isopropoxy-pyrazin-2-yl)-N-(3-methyl-pyridin-2-yl)-1,2,4-thiadiazol-5-amine] reads 500 to 5000 nM; that for `Cc1cccnc1Nc1nc(-c2ccc(OC3CCN(C4CC4)CC3)cn2)ns1` [Compound 45, 3-(5-(1-cyclo-propylpiperidin-4-yloxy)pyridin-2-yl)-N-(3-methylpyridin-2-yl)-1,2,4-thiadiazol-5-amine], 500 to 5000 nM; that for `CC(C)c1cccnc1Nc1nc(-c2ccc(OC(F)F)cn2)ns1` [Compound 127, 3-(5-(difluoro-methoxy)pyridin-2-yl)-N-(3-isopropyl-pyridin-2-yl)-1,2,4-thiadiazol-5-amine], 500 to 5000 nM.
Then `CC(C)c1cccnc1Nc1nc(-c2ccc(OC3CC3)cn2)ns1` [Compound 74, 3-(5-cyclopropoxy-pyridin-2-yl)-N-(3-isopropylpyridin-2-yl)-1,2,4-thiadiazol-5-amine], with below 200 nM; and `COC(=O)c1cc(-c2nsc(Nc3ncccc3C(C)C)n2)ncc1OC(C)C` [Compound 197, methyl 5-isopropoxy-2-(5-(3-isopropylpyridin-2-ylamino)-1,2,4-thiadiazol-3-yl)isonicotinate], with below 200 nM.
As to `COc1ccc(-c2nsc(Nc3ccc(C(F)(F)F)cn3)n2)nc1` [Compound 209, 3-(5-methoxy-pyridin-2-yl)-N-(5-(trifluoromethyl)pyridin-2-yl)-1,2,4-thiadiazol-5-amine], the IC50 was 500 to 5000 nM.
For `COc1cc(C(C)C)cnc1Nc1nc(-c2ccc(OC(C)C)cn2)ns1` [Compound 166, 3-(5-isopropoxy-pyridin-2-yl)-N-(5-isopropyl-3-methoxypyridin-2-yl)-1,2,4-thiadiazol-5-amine], the 50% inhibitory concentration (IC50) lay in the range of 500 to 5000 nM.
Then `Cc1cnc(Nc2nc(-c3cc(C(N)=O)c(OC(C)C)cn3)ns2)c(C(F)(F)F)c1` [Compound 252, 5-isopropoxy-2-(5-(5-methyl-3-(trifluoro-methyl)pyridin-2-ylamino)-1,2,4-thiadiazol-3-yl)isonico-tinamide], with 500 to 5000 nM.
